Drawing on patent US12404244B2, “Pan-KIT kinase inhibitor having quinoline structure and application thereof” (Tarapeutics Science Inc., priority 2018, dated 2025), this text covers GI50 for three compounds.

In assay [1] the test system is TEL-KIT/Y823D-BaF3. Kind of assay: Proliferation of TEL-KIT/Y823D-BaF3 cells (CCK-8). Format: cell-based. As to conditions: Mus musculus, read-out: GI50 TEL-KIT/Y823D-BaF3. An excerpt:
(§1) Compounds as provided herein were further evaluated for their inhibitory effects on proliferation of cancer cells by testing their effects on growth of cancer cells. In this example the following cells were used: primary mouse B cells BaF3 (purchased from ATCC), GIST-T1 cells of the human gastrointestinal stromal tumor cell line (expressing wild-type KIT gene) (purchased from Cosmo Bio Co., Ltd. (Japan)). The present lab further constructed and used the following: mouse Tel-Kit-BaF3 (stably expressing KIT wild-type kinase), mouse Tel-Kit/T670I-BaF3 (stably expressing KIT T670I mutant kinase), mouse Tel-Kit/V559A-BaF3 (stably expressing KIT V559A mutant kinase), mouse Tel-Kit/V559D-BaF3 (stably expressing KIT V559D mutant kinase), mouse Tel-Kit/V559G-BaF3 (stably expressing KIT V559G mutant kinase), mouse Tel-Kit/V560D-BaF3 (stably expressing KIT V560D mutant kinase), mouse Tel-Kit/L576P-BaF3 (stably expressing KIT L576P mutant kinase), mouse Tel-Kit/V654A-BaF3 (stably expressing KIT V654A mutant kinase), mouse Tel-Kit/V654A/V559D-BaF3 (stably expressing KIT V654A V559D mutant kinase), mouse Tel-Kit/T670E-BaF3 (stably expressing KIT T670E mutant kinase), mouse Tel-Kit/T670I/V559D-BaF3 (stably expressing KIT T670I V559D mutant kinase), mouse Tel-Kit/S709F-BaF3 (stably expressing KIT S709F mutant kinase), mouse Tel-Kit/D816E-BaF3 (stably expressing KIT D816E mutant kinase), mouse Tel-Kit/D816H-BaF3 (stably expressing KIT D816H mutant kinase), mouse Tel-Kit/D820E-BaF3 (stably expressing KIT D820E mutant kinase), mouse Tel-Kit/D820G-BaF3 (stably expressing KIT D820G mutant kinase), mouse Tel-Kit/D820Y-BaF3 (stably expressing KIT D820Y mutant kinase), mouse Tel-Kit/N822K-BaF3 (stably expressing KIT N822K mutant kinase), mouse Tel-Kit/Y823D-BaF3 (stably expressing KIT Y823D mutant kinase), mouse Tel-Kit/A829P-BaF3 (stably expressing KIT A829P mutant kinase), GIST-T1-T670I cells of the human gastrointestinal stromal tumor cell line (expressing KIT-T670I mutant gene). The above cell lines were constructed by: amplifying respectively the sequences of human KIT and various mutant kinase regions of KIT via PCR, inserting the fragments respectively into MSCV-Puro vectors having a N-terminal TEL fragment and/or a NPM fragment and/or a TPR fragment (purchased from Clontech), transfecting mouse BaF3 cells with the vectors by means of retrovirus to obtain stably transfected cells, removing the growth factor IL-3, and thereby eventually obtaining cell lines that depend on the transferred protein KIT or various mutants of KIT. […]

For assay [2], the system named is TEL-KIT/D820E-BaF3. Briefly: Proliferation of TEL-KIT/D820E-BaF3 cells (CCK-8). As to conditions: Mus musculus, read-out: GI50 TEL-KIT/D820E-BaF3. Format: cell-based.
Text: as §1

Assay [3] deals with TEL-KIT/T670I-BaF3. Kind of assay: Proliferation of TEL-KIT/T670I-BaF3 cells (CCK-8). Format: cell-based, mouse. Conditions: Mus musculus, read-out: GI50 TEL-KIT/T670I-BaF3. The text has this: Compounds as provided herein were further evaluated for their inhibitory effects on proliferation of cancer cells by testing their effects on growth of cancer cells. In this example the following cells were used: primary mouse B cells BaF3 (purchased from ATCC), GIST-T1 cells of the human gastrointestinal stromal tumor cell line (expressing wild-type KIT gene) (purchased from Cosmo Bio Co., Ltd. (Japan)). The present lab further constructed and used the following: mouse Tel-Kit-BaF3 (stably expressing KIT wild-type kinase), mouse Tel-Kit/T670I-BaF3 (stably expressing KIT T670I mutant kinase), mouse Tel-Kit/V559A-BaF3 (stably expressing KIT V559A mutant kinase), mouse Tel-Kit/V559D-BaF3 (stably expressing KIT V559D mutant kinase), mouse Tel-Kit/V559G-BaF3 (stably expressing KIT V559G mutant kinase), mouse Tel-Kit/V560D-BaF3 (stably expressing KIT V560D mutant kinase), mouse Tel-Kit/L576P-BaF3 (stably expressing KIT L576P mutant kinase), mouse Tel-Kit/V654A-BaF3 (stably expressing KIT V654A mutant kinase), mouse Tel-Kit/V654A/V559D-BaF3 (stably expressing KIT V654A V559D mutant kinase), mouse Tel-Kit/T670E-BaF3 (stably expressing KIT T670E mutant kinase), mouse Tel-Kit/T670I/V559D-BaF3 (stably expressing KIT T670I V559D mutant kinase), mouse Tel-Kit/S709F-BaF3 (stably expressing KIT S709F mutant kinase), mouse Tel-Kit/D816E-BaF3 (stably expressing KIT D816E mutant kinase), mouse Tel-Kit/D816H-BaF3 (stably expressing KIT D816H mutant kinase), mouse Tel-Kit/D820E-BaF3 (stably expressing KIT D820E mutant kinase), mouse Tel-Kit/D820G-BaF3 (stably expressing KIT D820G mutant kinase), mouse Tel-Kit/D820Y-BaF3 (stably expressing KIT D820Y mutant kinase), mouse Tel-Kit/N822K-BaF3 (stably expressing KIT N822K mutant kinase), mouse Tel-Kit/Y823D-BaF3 (stably expressing KIT Y823D mutant kinase), mouse Tel-Kit/A829P-BaF3 (stably expressing KIT A829P mutant kinase), GIST-T1-T670I cells of the human gastrointestinal stromal tumor cell line (expressing KIT-T670I mutant gene). The above cell lines were constructed by: amplifying respectively the sequences of human KIT and various mutant kinase regions of KIT via PCR, inserting the fragments respectively into MSCV-Puro vectors having a N-terminal TEL fragment and/or a NPM fragment and/or a TPR fragment (purchased from Clontech), transfecting mouse BaF3 cells with the vectors by means of retrovirus to obtain stably transfected cells, removing the growth factor IL-3, and thereby eventually obtaining cell lines that depend on the transferred protein KIT or various mutants of KIT. The GIST-T1-T670I (expressing C-KIT-T670I mutant gene) cell line was constructed by our laboratory as follows: designing sgRNA that targeted a region around T670 of the KIT gene with CRISPR Design Tool (website: crispr.mit.edu, Zhang Feng Lab), cloning it into pSpCas9(BB)-2A-Puro vector; co-transfecting cells with the resultant vector and a single-stranded oligonucleotide having T670I site mutation that is near to T670, subjecting the resultant to antibiotics screening, followed by dilution, and monocellular culture in a 96-well plate; validating the site T670 of the cells by sequence detection via Sanger sequencing.

Assay [4] concerns TEL-KIT/V654A-BaF3. Briefly: Proliferation of TEL-KIT/V654A-BaF3 cells (CCK-8). It is filed as cell-based. Conditions: Mus musculus, read-out: GI50 TEL-KIT/V654A-BaF3.
Text: as §1

Assay [5] relates to TEL-KIT/V560D-BaF3. Briefly: Proliferation of TEL-KIT/V560D-BaF3 cells (CCK-8). Conditions: Mus musculus, read-out: GI50 TEL-KIT/V560D-BaF3. Format: cell-based.
Text: as §1

Assay [6] has as its system TEL-KIT/L576P-BaF3. Kind of assay: Proliferation of TEL-KIT/L576P-BaF3 cells (CCK-8). Format: cell-based. Conditions: Mus musculus, read-out: GI50 TEL-KIT/L576P-BaF3.
Text: as §1, with “gene).” for “gene). The above cell lines were constructed by: amplifying respectively the sequences of human KIT and various mutant kinase regions of KIT via PCR, inserting the fragments respectively into MSCV-Puro vectors having a N-terminal TEL fragment and/or a NPM fragment and/or a TPR fragment (purchased from Clontech), transfecting mouse BaF3 cells with the vectors by means of retrovirus to obtain stably transfected cells, removing the growth factor IL-3, and thereby eventually obtaining cell lines that depend on the transferred protein KIT or various mutants of KIT.”

Assay [7] concerns TEL-KIT/V559A-BaF3. Kind of assay: Proliferation of TEL-KIT/V559A-BaF3 cells (CCK-8). Conditions: Mus musculus, read-out: GI50 TEL-KIT/V559A-BaF3. Format: cell-based.
Text: as §1

Assay [8] deals with TEL-KIT/T670I/V559D-BaF3. Kind of assay: Proliferation of TEL-KIT/T670I/V559D-BaF3 cells (CCK-8). Format: cell-based. As to conditions: Mus musculus, read-out: GI50 TEL-KIT/T670I/V559D-BaF3.
Text: as §1

The subject of assay [9] is TEL-KIT/S709F-BaF3. Briefly: Proliferation of TEL-KIT/S709F-BaF3 cells (CCK-8). It is filed as cell-based. As to conditions: Mus musculus, read-out: GI50 TEL-KIT/S709F-BaF3.
Text: as §1

For assay [10], the system named is TEL-KIT/D820Y-BaF3. Briefly: Proliferation of TEL-KIT/D820Y-BaF3 cells (CCK-8). It is filed as cell-based. Conditions: Mus musculus, read-out: GI50 TEL-KIT/D820Y-BaF3.
Text: as §1

The test system of assay [11] is GIST-T1/T670I. Kind of assay: Proliferation of GIST-T1/T670I cells (CCK-8). It is filed as cell-based. As to conditions: Homo sapiens, read-out: GI50 GIST-T1/T670I.
Text: as §1, with “gene).” for “gene). The above cell lines were constructed by: amplifying respectively the sequences of human KIT and various mutant kinase regions of KIT via PCR, inserting the fragments respectively into MSCV-Puro vectors having a N-terminal TEL fragment and/or a NPM fragment and/or a TPR fragment (purchased from Clontech), transfecting mouse BaF3 cells with the vectors by means of retrovirus to obtain stably transfected cells, removing the growth factor IL-3, and thereby eventually obtaining cell lines that depend on the transferred protein KIT or various mutants of KIT.”
(§2) The cells after incubation were detected using CCK-8 (purchased from MedChem Express, Shanghai, China) cell viability assay kit (CCK-8 may be reduced by dehydrogenase in living cells to a highly water-soluble yellow formazan product, and the amount of the resultant formazan is proportional to the number of living cells), the number of living cells were quantified with a microplate reader, and GI50 of the compounds and the control compounds were calculated (the results shown in Table 2 and Table 3).

The subject of assay [12] is TEL-KIT/V654A/V559D-BaF3. Kind of assay: Proliferation of TEL-KIT/V654A/V559D-BaF3 cells (CCK-8). As to conditions: Mus musculus, read-out: GI50 TEL-KIT/V654A/V559D-BaF3. It is filed as cell-based.
Text: as §1

In assay [13] the test system is GIST-T1. Kind of assay: Proliferation of GIST-T1 cells (CCK-8). As to conditions: Homo sapiens, read-out: GI50 GIST-T1. It is filed as cell-based.
Text: as §1, with “gene).” for “gene). The above cell lines were constructed by: amplifying respectively the sequences of human KIT and various mutant kinase regions of KIT via PCR, inserting the fragments respectively into MSCV-Puro vectors having a N-terminal TEL fragment and/or a NPM fragment and/or a TPR fragment (purchased from Clontech), transfecting mouse BaF3 cells with the vectors by means of retrovirus to obtain stably transfected cells, removing the growth factor IL-3, and thereby eventually obtaining cell lines that depend on the transferred protein KIT or various mutants of KIT.”
as §2

Assay [14] has as its system TEL-KIT/N822K-BaF3. Briefly: Proliferation of TEL-KIT/N822K-BaF3 cells (CCK-8). It is filed as cell-based. Conditions: Mus musculus, read-out: GI50 TEL-KIT/N822K-BaF3.
Text: as §1

Read-outs that look alike come from different tables or passages of the source.

For `COc1cc2nccc(Oc3ccc(NC(=O)Cc4ccc(Cl)c(C(F)(F)F)c4)cc3)c2cc1OC` [Example 2, N-(4-((6,7-dimethoxyquinolin-4-yl)oxy)phenyl)-2-(4-chloro-3-(trifluoromethyl)phenyl)-acetamide], the GI50 was 35 nM in assay [1] (72 hours, CCK-8); 1 nM in assay [2] (72 hours, CCK-8); 4 nM in assay [3] (72 hours, CCK-8); 320 nM in assay [4] (72 hours, CCK-8); 4 nM in assay [5] (72 hours, CCK-8); 1 nM in [6] (72 hours, CCK-8). The GI50 in assay [7] (72 hours, CCK-8) was determined as 21 nM; in assay [8] (72 hours, CCK-8), 45 nM; in assay [9] (72 hours, CCK-8), 17 nM; in assay [10] (72 hours, CCK-8) it was 3 nM; in [11] (GISTT1, 72 hours, CCK-8) it was 11 nM; in assay [12] (72 hours, CCK-8), 42 nM. Moreover, the GI50 came out at 6 nM in [13] (GISTT1, 72 hours, CCK-8) and 26 nM in assay [14] (72 hours, CCK-8).
For `COc1cc2nccc(Oc3ccc(NC(=O)Cc4ccc(C)c(C(F)(F)F)c4)cc3)c2cc1OC` [Example 1, N-(4-((6,7-dimethoxyquinolin-4-yl)oxy)phenyl)-2-(4-methyl-3-(trifluoromethyl)phenyl)acetamide], the GI50 worked out at 15 nM in [1] (72 h); 5 nM in assay [2] (72 h); 14 nM in [3] (72 h); 110 nM in assay [4] (72 h); 5 nM in [5] (72 h); 2 nM in assay [6] (72 h). Further, the GI50 in assay [7] (72 h) is 16 nM; in assay [8] (72 h), 48 nM; in [9] (72 h), 11 nM; in assay [10] (72 h) it was 6 nM; in [11] (GISTT1, 72 h), 16 nM; in [12] (72 h), 39 nM. For the same compound, the GI50 amounted to 5 nM in assay [13] (GISTT1, 72 h) and 69 nM in assay [14] (72 h).
With `CCN(CC)CCNC(=O)c1c(C)[nH]c(/C=C2\C(=O)Nc3ccc(F)cc32)c1C` [Sunitinib, reference compound], the GI50 in assay [1] (72 hours, CCK-8) was 704 nM; in [2] (72 hours, CCK-8), 93 nM; in assay [3] (72 hours, CCK-8), 21 nM; in assay [4] (72 hours, CCK-8), 5 nM; in [5] (72 hours, CCK-8), 35 nM; in [6] (72 hours, CCK-8), 6 nM. Moreover, the GI50 in [7] (72 hours, CCK-8) came out at 20 nM; in assay [8] (72 hours, CCK-8), 12 nM; in assay [9] (72 hours, CCK-8) it was 28 nM; in assay [10] (72 hours, CCK-8), 172 nM; in assay [11] (GISTT1, 72 hours, CCK-8), 4 nM; in assay [12] (72 hours, CCK-8), 19 nM. Further, the GI50 was found to be 11 nM in assay [13] (GISTT1, 72 hours, CCK-8) and 384 nM in [14] (72 hours, CCK-8).
